Reference: patent US8987314B2, “Amide, urea or sulfone amide linked benzothiazole inhibitors of endothelial lipase” (Bristol-Myers Squibb Company, priority 2012, dated 2015)
pIC50: −log10 of the molar value.

What was measured:
[1] = molecular target: Endothelial lipase (EL) (Homo sapiens (Human), UniProt Q9Y5X9); experiment: EL assay: endothelial lipase activity with fluorescent substrate A10070 in DMPG vesicles; format: biochemical
Procedure, shortened: (§1)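 EL from conditioned medium of HT-1080 cells engineered to overexpress endogenous EL; HL partially purified from conditioned medium of HL-overexpressing COS cells. Enzyme preincubated with compound 30 min at 37° C in 50 mM HEPES pH 8.0, 50 mM NaCl, 1 mM CaCl2; DMPG vesicles carrying FRET substrate (0.11 mole fraction) then added.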

[2] = molecular target: hepatic lipase (HL) (Homo sapiens (Human), UniProt P11150); experiment: HL assay: hepatic lipase activity with fluorescent substrate A10070 in DMPG vesicles; format: biochemical
Sequence of hepatic lipase (HL) (P11150 23-499, species assumed): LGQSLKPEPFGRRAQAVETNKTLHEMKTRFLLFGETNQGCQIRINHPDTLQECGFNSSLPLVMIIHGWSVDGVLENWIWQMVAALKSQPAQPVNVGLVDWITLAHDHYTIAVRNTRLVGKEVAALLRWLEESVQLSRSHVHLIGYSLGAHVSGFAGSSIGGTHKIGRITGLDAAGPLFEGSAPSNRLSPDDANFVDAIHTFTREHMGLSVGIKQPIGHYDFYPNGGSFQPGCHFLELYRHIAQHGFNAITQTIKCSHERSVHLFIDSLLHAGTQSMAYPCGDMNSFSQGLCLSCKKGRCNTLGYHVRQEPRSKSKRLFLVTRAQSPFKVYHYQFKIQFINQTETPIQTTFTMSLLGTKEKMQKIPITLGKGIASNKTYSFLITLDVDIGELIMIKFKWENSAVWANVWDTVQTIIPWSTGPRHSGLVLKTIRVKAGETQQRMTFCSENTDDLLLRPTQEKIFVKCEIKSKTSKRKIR
Procedure, shortened: as §1

Sequence of Endothelial lipase (EL) (Q9Y5X9 21-500): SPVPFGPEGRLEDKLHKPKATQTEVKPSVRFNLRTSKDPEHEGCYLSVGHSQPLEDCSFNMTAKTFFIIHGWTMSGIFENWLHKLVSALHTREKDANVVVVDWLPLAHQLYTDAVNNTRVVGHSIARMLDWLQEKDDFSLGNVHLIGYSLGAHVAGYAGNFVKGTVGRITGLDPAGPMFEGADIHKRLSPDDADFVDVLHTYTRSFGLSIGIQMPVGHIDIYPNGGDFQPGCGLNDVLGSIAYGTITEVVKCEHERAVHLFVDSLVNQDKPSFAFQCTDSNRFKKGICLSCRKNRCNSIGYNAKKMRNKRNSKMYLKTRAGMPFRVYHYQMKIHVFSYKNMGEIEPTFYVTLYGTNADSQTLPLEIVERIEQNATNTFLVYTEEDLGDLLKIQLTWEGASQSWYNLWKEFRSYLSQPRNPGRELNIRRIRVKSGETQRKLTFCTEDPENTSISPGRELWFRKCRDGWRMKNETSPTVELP

| SMILES | pIC50 [1] | pIC50 [2] |
| --- | --- | --- |
| COCCS(=O)(=O)NS(=O)(=O)c1cccc(CNC(=O)C(c2nc3cc(-c4ccccc4)ccc3s2)S(=O)(=O)CCOC)c1 (stereo not shown) [Example B270, N-({3-[(2-methoxyethane-sulfonamido)sulfonyl]phen-yl}methyl)-2-(2-methoxyethanesulfonyl)-2-(5-phenyl-1,3-benzothiazol-2-yl)a-cetamide] | 6.69 | 6.67 |
| CC(C)S(=O)(=O)C(C(=O)NCCS(N)(=O)=O)c1nc2ccc(-c3cccc(C(=O)N(C)C)c3)cc2s1 (stereo not shown) [Example B272, N,N-dimethyl-3-{2-[(propane-2-sulfonyl)[(2-sul-famoylethyl)carbamoyl]meth-yl]-1,3-benzothiazol-6-yl}benzamide] | 7.45 | 6.21 |
| Cc1cc2nc(C(C(=O)NCCS(N)(=O)=O)S(=O)(=O)Cc3ccccc3)sc2cc1-c1ccc(C(=O)OC(C)(C)C)cc1 (stereo not shown) [Example B273, tert-butyl 4-(5-methyl-2-{phenylmethanesulfonyl[(2-sulfamoylethyl)car-bamoyl]methyl}-1,3-benzothiazol-6-yl)benzoate] | 8.85 | 8.52 |
| Cc1cc2nc(C(C(=O)NCCS(N)(=O)=O)S(C)(=O)=O)sc2cc1-c1ccc(C(=O)OC(C)(C)C)cc1 (stereo not shown) [Example B274, tert-butyl 4-(2-{methanesulfonyl[(2-sul-famoylethyl)carbamoyl]meth-yl}-5-methyl-1,3-benzothiazol-6-yl)benzoate] | 8.77 | 8.29 |
| CS(=O)(=O)C(C(=O)NCc1ccccc1S(N)(=O)=O)c1nc2ccc(-c3ccc(N4CCCCC4)cc3)cc2s1 (stereo not shown) [Example B275, 2-methanesulfonyl-2-{6-[4-(piperidin-1-yl)phenyl]-1,3-benzothiazol-2-yl}-N-[(2-sulfamoylphenyl)meth-yl]acetamide] | 6.76 | 6.66 |
| NS(=O)(=O)c1cccc(CNC(=O)C(c2nc3ccc(-c4ccc(C(=O)N5CCCC5)cc4)cc3s2)S(=O)(=O)Cc2ccccc2)c1 (stereo not shown) [Example B277, 2-phenylmethanesulfonyl-2-{6-[4-(pyrrolidine-1-carbonyl)phenyl]-1,3-benzothiazol-2-yl}-N-[(3-sulfamoylphenyl)methyl]a-cetamide] | 6.72 | 7.07 |
| NS(=O)(=O)c1cccc(CNC(=O)C(c2nc3ccc(-c4ccncc4Cl)cc3s2)S(=O)(=O)Cc2ccccc2)c1 (stereo not shown) [Example B278, 2-[6-(3-chloropyridin-4-yl)-1,3-benzothiazol-2-yl]-2-phenylmethanesulfonyl-N-[(3-sulfamoylphen-yl)methyl]acetamide] | 6.80 | 6.45 |
| Cc1nnc(CNC(=O)C(c2nc3ccc(-c4ccc(C(=O)OC(C)(C)C)cc4)cc3s2)S(C)(=O)=O)s1 (stereo not shown) [Example B279, tert-butyl 4-{2-[methanesulfonyl({[(5-methyl-1,3,4-thiadiazol-2-yl)methyl]carbamoyl})meth-yl]-1,3-benzothiazol-6-yl}benzoate] | 7.81 | 8.55 |
| CC(C)S(=O)(=O)C(C(=O)NCCS(N)(=O)=O)c1nc2c(F)cc(-c3cccc(C(=O)OC(C)(C)C)c3)cc2s1 (stereo not shown) [Example B280, tert-butyl 3-{4-fluoro-2-[(propane-2-sulfonyl)[(2-sul-famoylethyl)carbamoyl]meth-yl]-1,3-benzothiazol-6-yl}benzoate] | 8.32 | 8.54 |
| COCCS(=O)(=O)C(C(=O)NCCS(N)(=O)=O)c1nc2ccc(-c3ccc(F)nc3)cc2s1 (stereo not shown) [Example B281, 2-[6-(6-fluoropyridin-3-yl)-1,3-benzothiazol-2-yl]-2-(2-methoxyethane-sulfonyl)-N-(2-sulfamoylethyl)acetamide] | 7.75 | 6.96 |
| NS(=O)(=O)CCNC(=O)C(c1nc2ccc(-c3ccc(C(=O)N4CCOCC4)cc3)cc2s1)S(=O)(=O)CC1CC1 (stereo not shown) [Example B283, 2-cyclopropylmethane-sulfonyl-2-{6-[4-(morpholine-4-carbonyl)phenyl]-1,3-benzothiazol-2-yl}-N-(2-sulfamoylethyl)acetamide] | 7.27 | 6.44 |
| NS(=O)(=O)CCNC(=O)C(c1nc2ccc(-c3ccccc3)cc2s1)S(=O)(=O)CCC(F)(F)F (stereo not shown) [Example B284, 2-(6-phenyl-1,3-benzothiazol-2-yl)-N-(2-sulfamoylethyl)-2-(3,3,3-trifluoropropanesulfonyl)a-cetamide] | 8.17 | 8.59 |
| COCc1ccc(-c2ccc3nc(C(C(=O)NCCS(N)(=O)=O)S(=O)(=O)CC4CC4)sc3c2)cc1 (stereo not shown) [Example B286, 2-cyclopropylmethane-sulfonyl-2-{6-[4-(methoxymethyl)phenyl]-1,3-benzothiazol-2-yl}-N-(2-sulfamoylethyl)a-cetamide] | 8.41 | 7.26 |
| COCCNC(=O)c1ccc(-c2ccc3nc(C(C(=O)NCCS(N)(=O)=O)S(=O)(=O)Cc4cc(Cl)cc(Cl)c4)sc3c2)cc1 (stereo not shown) [Example B295, 4-{2-[(3,5-dichlorophen-yl)methanesulfonyl[(2-sulfa-moylethyl)carbamoyl]meth-yl]-1,3-benzothiazol-6-yl}-N-(2-methoxyethyl)ben-zamide] | 7.68 | 6.85 |
| NS(=O)(=O)CCNC(=O)C(c1nc2ccc(-c3ccc(C(=O)N4CCOCC4)cc3)cc2s1)S(=O)(=O)Cc1ccc(F)cc1 (stereo not shown) [Example B296, 2-[(4-fluorophenyl)methanesulfonyl]-2-{6-[4-(morpholine-4-carbon-yl)phenyl]-1,3-benzothiazol-2-yl}-N-(2-sulfamoyleth-yl)acetamide] | 8.54 | 6.57 |
| NS(=O)(=O)CCNC(=O)C(c1nc2ccc(-c3ccc(C(=O)N4CCOCC4)cc3)cc2s1)S(=O)(=O)Cc1ccc(Cl)c(Cl)c1 (stereo not shown) [Example B297, 2-[(3,4-dichlorophen-yl)methanesulfonyl]-2-{6-[4-(morpholine-4-carbon-yl)phenyl]-1,3-benzothiazol-2-yl}-N-(2-sulfamoylethyl)a-cetamide] | 8.28 | 6.26 |

The remaining lines, values ahead:

| pIC50 [1] | pIC50 [2] | SMILES |
| --- | --- | --- |
| 8.96 | 9.10 | CC(C)(C)OC(=O)c1ccc(-c2ccc3nc(C(C(=O)NCCS(N)(=O)=O)S(=O)(=O)Cc4ccccc4)sc3c2)cc1 (stereo not shown) [Example B276, tert-butyl 4-(2-{phenylmethanesulfonyl[(2-sulfamoylethyl)car-bamoyl]methyl)-1,3-benzothiazol-6-yl)benzoate] |
| 8.59 | 6.51 | COCCNC(=O)c1ccc(-c2ccc3nc(C(C(=O)NCCS(N)(=O)=O)S(=O)(=O)Cc4ccc(OC(F)(F)F)cc4)sc3c2)cc1 (stereo not shown) [Example B282, N-(2-methoxyethyl)-4-(2-{[(2-sulfamoylethyl)car-bamoyl][4-(trifluoromethoxy)phen-yl]methanesulfonylmethyl}-1,3-benzothiazol-6-yl)ben-zamide] |
| 8.27 | 6.90 | COCc1ccc(-c2ccc3nc(C(C(=O)NCCS(N)(=O)=O)S(=O)(=O)Cc4ccc(OC(F)(F)F)cc4)sc3c2)cc1 (stereo not shown) [Example B285, 2-{6-[4-(methoxymethyl)phenyl]-1,3-benzothiazol-2-yl}-N-(2-sulfamoylethyl)-2-{[4-(trifluoromethoxy)phen-yl]methanesulfonyl}a-cetamide] |
| 8.15 | 7.05 | CC(=O)Nc1ccc(-c2ccc3nc(C(C(=O)NCCS(N)(=O)=O)S(=O)(=O)Cc4ccc(C(F)(F)F)cc4)sc3c2)cc1 (stereo not shown) [Example B287, 2-[6-(4-acetamidophenyl)-1,3-benzothiazol-2-yl]-N-(2-sulfamoylethyl)-2-{[4-(trifluoromethyl)phen-yl]methanesulfonyl}a-cetamide] |
| 9.10 | 6.91 | COCCN(C)C(=O)c1ccc(-c2ccc3nc(C(C(=O)NCCS(N)(=O)=O)S(=O)(=O)Cc4ccc(C(F)(F)F)cc4)sc3c2)cc1 (stereo not shown) [Example B288, N-(2-methoxyethyl)-N-methyl-4-(2-{[(2-sulfamoylethyl)carbamoyl][4-(trifluoromethyl)phen-yl]methanesulfonylmethyl}-1,3-benzothiazol-6-yl)ben-zamide] |
| 8.51 | 7.66 | COCCN(C)C(=O)c1ccc(-c2ccc3nc(C(C(=O)NCCS(N)(=O)=O)S(=O)(=O)Cc4ccc(OC(F)(F)F)cc4)sc3c2)cc1 (stereo not shown) [Example B289, N-(2-methoxyethyl)-N-methyl-4-(2-{[(2-sulfamoyl-ethyl)carbamoyl][4-(trifluoromethoxy)phen-yl]methanesulfonyl-methyl}-1,3-benzothiazol-6-yl)benzamide] |
| 7.92 | 6.94 | COCCN(C)C(=O)c1ccc(-c2ccc3nc(C(C(=O)NCCS(N)(=O)=O)S(=O)(=O)CCC(F)(F)F)sc3c2)cc1 (stereo not shown) [Example B290, N-(2-methoxyethyl)-N-methyl-4-(2-{[(2-sulfa-moylethyl)carbamoyl](3,3,3-trifluoropropane-sulfonyl)methyl}-1,3-benzothiazol-6-yl)ben-zamide] |
| 9.15 | 7.45 | COCCN(C)C(=O)c1ccc(-c2ccc3nc(C(C(=O)NCCS(N)(=O)=O)S(=O)(=O)CC4CC4)sc3c2)cc1 (stereo not shown) [Example B291, 4-(2-{cyclopropylmethane-sulfonyl[(2-sulfamoyl-ethyl)carbamoyl]methyl}-1,3-benzothiazol-6-yl)-N-(2-methoxyethyl)-N-methylbenzamide] |
| 7.69 | 6.95 | COCCNC(=O)c1ccc(-c2ccc3nc(C(C(=O)NCCS(N)(=O)=O)S(=O)(=O)Cc4ccc(Cl)c(Cl)c4)sc3c2)cc1 (stereo not shown) [Example B292, 4-{2-[(3,4-dichlorophen-yl)methanesulfonyl[(2-sulfa-moylethyl)carbamoyl]meth-yl]-1,3-benzothiazol-6-yl}-N-(2-methoxyethyl)ben-zamide] |
| 6.84 | 6.48 | NS(=O)(=O)CCNC(=O)C(c1nc2ccc(-c3ccc(C(=O)N4CCOCC4)cc3)cc2s1)S(=O)(=O)Cc1ccc(C(F)(F)F)cc1 (stereo not shown) [Example B293, 2-{6-[4-(morpholine-4-carbonyl)phenyl]-1,3-benzothiazol-2-yl}-N-(2-sulfamoylethyl)-2-{[4-(trifluoromethyl)phen-yl]methanesulfonyl}a-cetamide] |
